Results: patent US20250186437A1, “CARBOLINE COMPOUNDS AND USE THEREOF” (PTC Therapeutics, Inc., priority 2021, published 2025)

The compounds below were run on MOLM-13 cells (assay: MOLM-13 Cell Proliferation Assay (indicator of DHODH inhibition)). Conditions: Homo sapiens, 72 Hours of culture, CellTiter-Glo, no uridine.
Format: cell-based
Experimental: The following assay was conducted to measure proliferation of MOLM-13 cells in the presence of each compound studied. This assay was included as an indicator of DHODH inhibition, as growth of MOLM-13 cells is known to depend on synthesis of pyrimidines using the de novo pathway, which can be blocked by inhibition of DHODH. • 1. MOLM-13 cells were cultured in RPMI 1640 medium+10% Fetal Bovine Serum (FBS). Only low passage cells (<20) were used for the compound tests • 2. On day 1, Log-phase growing Molm-13 Cells were counted and diluted to 10^5 cells/mL in RPMI 1640 medium+10% FBS • 3. 100 μL of diluted MOLM-13 cells in 96 well white plates were seeded, for a final density of 10^4 cells/well. • 4. 0.5 μL of pre-diluted 200× compounds or DMSO control was added to each well. The final DMSO concentration was 0.5%. • 5. After 72 Hours of culture at 37° C., 5% CO2, the plates were taken out and cooled to RT, then 50 μL CellTiter-Glo® (Promega) was added, and the composition was mixed at RT for 10 minutes. • 6. The plates were then read by ViewLux (Speed-fast, Gain-High, Bining-1X, 5 seconds).

SMILES	IC50
Cc1ccnc(N2CCc3c([nH]c4cc(F)c(Cl)cc34)C2c2ccc(C)c(F)c2F)n1 (stereo not drawn) [Compound 139, 6-chloro-1-(2,3-difluoro-4-methylphenyl)-7-fluoro-2-(4-methylpyrimidin-2-yl)-2,3,4,9-tetrahydro-1H-pyrido[3,4-b]indole]	3.6 nM
Cc1ccnc(N2CCc3c([nH]c4cc(F)c(Cl)cc34)C2c2ccc(Cl)cc2)n1 (stereo not drawn) [Compound 38, 6-chloro-1-(4-chlorophenyl)-7-fluoro-2-(4-methylpyrimidin-2-yl)-2,3,4,9-tetrahydro-1H-pyrido[3,4-b]indole]	24.3 nM
Cc1ccc([C@H]2c3[nH]c4ccc(Cl)cc4c3CCN2c2nc(C)c(F)c(C)n2)cc1 [Compound 395, (1S)-6-chloro-2-(5-fluoro-4,6-dimethylpyrimidin-2-yl)-1-(4-methylphenyl)-2,3,4,9-tetrahydro-1H-pyrido[3,4-b]indole]	4.4 nM
Cc1nc(C)nc(N2CCc3c([nH]c4c(O)cc(Cl)cc34)C2c2cnc(N3CCOCC3)nc2)n1 (stereo not drawn) [Compound 370, 6-chloro-2-(4,6-dimethyl-1,3,5-triazin-2-yl)-1-[2-(morpholin-4-yl)pyrimidin-5-yl]-2,3,4,9-tetrahydro-1H-pyrido[3,4-b]indol-8-ol]	8.1 nM
Cc1ccc(C2c3[nH]c4ccc(Cl)c(F)c4c3CCN2c2nccc(Cl)n2)cc1 (stereo not drawn) [Compound 28, 6-chloro-2-(4-chloropyrimidin-2-yl)-5-fluoro-1-(4-methylphenyl)-2,3,4,9-tetrahydro-1H-pyrido[3,4-b]indole]	4.4 nM
C[C@@H]1CN(c2ncc([C@H]3c4[nH]c5ccc(Cl)cc5c4CCN3c3nc(C(F)(F)F)cc(C(F)(F)F)n3)cn2)CCN1 [Compound 511, (1S)-2-[4,6-bis(trifluoromethyl)pyrimidin-2-yl]-6-chloro-1-{2-[(3R)-3-methylpiperazin-1-yl]pyrimidin-5-yl}-2,3,4,9-tetrahydro-1H-pyrido[3,4-b]indole]	3.8 nM
CN1CCN(c2nc(N3CCc4c([nH]c5ccc(Cl)cc45)[C@@H]3c3cnc(N4CCOCC4)nc3)nc(C(F)(F)F)n2)CC1 [Compound 478, (1S)-6-chloro-2-[4-(4-methylpiperazin-1-yl)-6-(trifluoromethyl)-1,3,5-triazin-2-yl]-1-[2-(morpholin-4-yl)pyrimidin-5-yl]-2,3,4,9-tetrahydro-1H-pyrido[3,4-b]indole]	9.5 nM
Oc1cc(Cl)ccc1C1c2[nH]c3ccc(Cl)cc3c2CCN1c1ncc(F)cn1 (stereo not drawn) [Compound 221, 5-chloro-2-[6-chloro-2-(5-fluoropyrimidin-2-yl)-2,3,4,9-tetrahydro-1H-pyrido[3,4-b]indol-1-yl]phenol]	4.2 nM
Cc1nc(N2CCc3c([nH]c4ccc(Cl)cc34)C2c2cnc(N3CCOCC3)nc2)nc(C)c1F (stereo not drawn) [Compound 368, 6-chloro-2-(5-fluoro-4,6-dimethylpyrimidin-2-yl)-1-[2-(morpholin-4-yl)pyrimidin-5-yl]-2,3,4,9-tetrahydro-1H-pyrido[3,4-b]indole]	7.9 nM
Cc1nc(C)nc(N2CCc3c([nH]c4ccc(Cl)cc34)C2c2ccc(C#N)cc2F)n1 (stereo not drawn) [Compound 453, 4-[6-chloro-2-(4,6-dimethyl-1,3,5-triazin-2-yl)-2,3,4,9-tetrahydro-1H-pyrido[3,4-b]indol-1-yl]-3-fluorobenzonitrile]	4.9 nM
O=C(O)COCCNc1ncc([C@H]2c3[nH]c4ccc(Cl)cc4c3CCN2c2nc(C(F)(F)F)nc(C(F)(F)F)n2)cn1 [Compound 539, {2-[(5-{(1S)-2-[4,6-bis(trifluoromethyl)-1,3,5-triazin-2-yl]-6-chloro-2,3,4,9-tetrahydro-1H-pyrido[3,4-b]indol-1-yl}pyrimidin-2-yl)amino]ethoxy}acetic acid]	12 nM
Cc1ccc(C2c3[nH]c4ccc(Cl)cc4c3CCN2c2nc(C)nc(C)n2)c(F)c1 (stereo not drawn) [Compound 452, 6-chloro-2-(4,6-dimethyl-1,3,5-triazin-2-yl)-1-(2-fluoro-4-methylphenyl)-2,3,4,9-tetrahydro-1H-pyrido[3,4-b]indole]	5.1 nM
Cc1nc(C)nc(N2CCc3c([nH]c4ccc(-n5nccn5)cc34)C2c2cnc(N3CCOCC3)nc2)n1 (stereo not drawn) [Compound 300, 2-(4,6-dimethyl-1,3,5-triazin-2-yl)-1-[2-(morpholin-4-yl)pyrimidin-5-yl]-6-(2H-1,2,3-triazol-2-yl)-2,3,4,9-tetrahydro-1H-pyrido[3,4-b]indole]	20.5 nM
Cc1ccnc(N2CCc3c([nH]c4ccc(Cl)cc34)C2c2cnc(N3CCOCC3)nc2)n1 (stereo not drawn) [Compound 312, 6-chloro-2-(4-methylpyrimidin-2-yl)-1-[2-(morpholin-4-yl)pyrimidin-5-yl]-2,3,4,9-tetrahydro-1H-pyrido[3,4-b]indole]	7.4 nM
Cc1ccc(C2c3[nH]c4cc(F)c(Cl)cc4c3CCN2c2ncc(C)cn2)cc1 (stereo not drawn) [Compound 134, 6-chloro-7-fluoro-1-(4-methylphenyl)-2-(5-methylpyrimidin-2-yl)-2,3,4,9-tetrahydro-1H-pyrido[3,4-b]indole]	21.7 nM
Cc1ncc(C2c3[nH]c4cc(F)c(Cl)cc4c3CCN2c2nccc(C(F)(F)F)n2)cn1 (stereo not drawn) [Compound 92, 6-chloro-7-fluoro-1-(2-methylpyrimidin-5-yl)-2-[4-(trifluoromethyl)pyrimidin-2-yl]-2,3,4,9-tetrahydro-1H-pyrido[3,4-b]indole]	34.6 nM

Stronger by IC50, values ahead:

IC50	SMILES
2.7 nM	FC(F)(F)c1nc(N2CCOCC2)nc(N2CCc3c([nH]c4ccc(Cl)cc34)[C@@H]2c2ccc(N3CCOCC3)nc2)n1 [Compound 446, (1S)-6-chloro-1-[6-(morpholin-4-yl)pyridin-3-yl]-2-[4-(morpholin-4-yl)-6-(trifluoromethyl)-1,3,5-triazin-2-yl]-2,3,4,9-tetrahydro-1H-pyrido[3,4-b]indole]
0.5 nM	Cc1ccc(C2c3[nH]c4cc(F)c(Cl)cc4c3CCN2c2nc(C(F)(F)F)cc(C(F)(F)F)n2)c(F)c1F (stereo not drawn) [Compound 155, 2-[4,6-bis(trifluoromethyl)pyrimidin-2-yl]-6-chloro-1-(2,3-difluoro-4-methylphenyl)-7-fluoro-2,3,4,9-tetrahydro-1H-pyrido[3,4-b]indole]
1.9 nM	CN(C)c1ccc(C2c3[nH]c4ccc(Cl)c(F)c4c3CCN2c2nccc(C(F)(F)F)n2)c(F)n1 (stereo not drawn) [Compound 210, 5-{6-chloro-5-fluoro-2-[4-(trifluoromethyl)pyrimidin-2-yl]-2,3,4,9-tetrahydro-1H-pyrido[3,4-b]indol-1-yl}-6-fluoro-N,N-dimethylpyridin-2-amine]
1.9 nM	Cc1ccc([C@H]2c3[nH]c4ccc(Cl)cc4c3CCN2c2nc(C)c(F)c(C#N)n2)cc1 [Compound 417, 2-[(1S)-6-chloro-1-(4-methylphenyl)-1,3,4,9-tetrahydro-2H-pyrido[3,4-b]indol-2-yl]-5-fluoro-6-methylpyrimidine-4-carbonitrile]
0.6 nM	N#Cc1ccc(C2c3[nH]c4cc(F)c(Cl)cc4c3CCN2c2nc(C(F)(F)F)cc(C(F)(F)F)n2)cc1 (stereo not drawn) [Compound 188, 4-{2-[4,6-bis(trifluoromethyl)pyrimidin-2-yl]-6-chloro-7-fluoro-2,3,4,9-tetrahydro-1H-pyrido[3,4-b]indol-1-yl}benzonitrile]
2.2 nM	Cc1ccc([C@H]2c3[nH]c4ccc(Cl)cc4c3CCN2c2ncc(F)c(C#N)n2)c(F)c1F [Compound 385, 2-[(1S)-6-chloro-1-(2,3-difluoro-4-methylphenyl)-1,3,4,9-tetrahydro-2H-pyrido[3,4-b]indol-2-yl]-5-fluoropyrimidine-4-carbonitrile]
3.1 nM	CN(C)c1nc(N2CCc3c([nH]c4ccc(Cl)cc34)[C@@H]2c2ccc(N3CCOCC3)nc2)nc(C(F)(F)F)n1 [Compound 443, 4-{(1S)-6-chloro-1-[6-(morpholin-4-yl)pyridin-3-yl]-1,3,4,9-tetrahydro-2H-pyrido[3,4-b]indol-2-yl}-N,N-dimethyl-6-(trifluoromethyl)-1,3,5-triazin-2-amine]
0.8 nM	COCCOc1ncc([C@H]2c3[nH]c4ccc(Cl)cc4c3CCN2c2nc(C(F)(F)F)nc(C(F)(F)F)n2)cn1 [Compound 534, (1S)-2-[4,6-bis(trifluoromethyl)-1,3,5-triazin-2-yl]-6-chloro-1-[2-(2-methoxyethoxy)pyrimidin-5-yl]-2,3,4,9-tetrahydro-1H-pyrido[3,4-b]indole]
0.8 nM	FC(F)(F)c1cc(C(F)(F)F)nc(N2CCc3c([nH]c4ccc(-n5nccn5)cc34)C2c2cnc(N3CCOCC3)nc2)n1 (stereo not drawn) [Compound 482, 2-[4,6-bis(trifluoromethyl)pyrimidin-2-yl]-1-[2-(morpholin-4-yl)pyrimidin-5-yl]-6-(2H-1,2,3-triazol-2-yl)-2,3,4,9-tetrahydro-1H-pyrido[3,4-b]indole]
0.7 nM	OCCNc1ncc([C@H]2c3[nH]c4ccc(Cl)cc4c3CCN2c2nc(C(F)(F)F)nc(C(F)(F)F)n2)cn1 [Compound 535, 2-[(5-{(1S)-2-[4,6-bis(trifluoromethyl)-1,3,5-triazin-2-yl]-6-chloro-2,3,4,9-tetrahydro-1H-pyrido[3,4-b]indol-1-yl}pyrimidin-2-yl)amino]ethan-1-ol]
2.3 nM	Cc1cc(C(F)(F)F)nc(N2CCc3c([nH]c4cc(F)c(Cl)cc34)C2c2ccc(C#N)cc2)n1 (stereo not drawn) [Compound 88, 4-{6-chloro-7-fluoro-2-[4-methyl-6-(trifluoromethyl)pyrimidin-2-yl]-2,3,4,9-tetrahydro-1H-pyrido[3,4-b]indol-1-yl}benzonitrile]
